In US20220016115A1, “USP19 INHIBITORS FOR USE IN THERAPY” (ALMAC DISCOVERY LIMITED, priority 2018, published 2022):
“Also recorded” adds a separate entry of the source.

Columns and labels:
Assay type in all cases: in vivo
[1] = system: male C57bl/6 mice; assay: Sciatic nerve denervation muscle wasting model; conditions: 75 mg/kg IP twice daily, vs vehicle
Method: To induce muscle wasting, a 1 cm segment of the sciatic nerve in the thigh was removed from mice (male C57bl/6 mice at 8-10 weeks of age; n=10 per group) under isoflurane anaesthesia and analgesia with carprofen. A sham operation was carried out in the opposite leg as a control.
Mice were randomised into Vehicle or Test groups, with all animals weighed to ensure a similar mean weight in each group. A USP19 inhibitory compound (ADC-141, which is 1-(((S)-7-((R)-3-Cyclohexyl-2-methylpropanoyl)-10-hydroxy-7-azaspiro[4.5]decan-10-yl)methyl)-4-phenyl-5-(piperazine-1-carbonyl)pyridin-2(1H)-one, corresponding to exemplary compound 212 provided herein) at 75 mg/kg or Vehicle was administered IP twice daily starting from the evening post-operation.
Mice were sacrificed 14 days later. Fat pads, liver, gastrocnemius and tibialis anterior muscles were harvested. Tissue mass were measured in both groups.

[2] = system: diet-induced obese (DIO) mouse; assay: Diet-induced obesity mouse model: body weight, DEXA and carcass composition
Method: (§1) To assess obesity and insulin resistance, a diet-induced obesity mouse model was used.
(§2) Male C57BL6/J mice were continuously provided with high-fat diet (D12451, 45% kcal as fat; Research Diets, New Jersey, USA) and filtered tap water ad libitum for the duration of the study. From day 0, mice were administered vehicle i.p. BID, USP19 inhibitor (ADC-141) i.p. BID at 5 mg/kg or 25 mg/kg, or positive control liraglutide 0.1 mg/kg s.c. BID. Mice were allocated to treatment groups to balance the groups on the basis of body weight, food and water intake prior to the start of treatment.
(§3) Body weight was measured daily. On Day 13, body composition was assessed by DEXA. On Day 15, fasting glucose and insulin levels were measured before and during an oral glucose tolerance test (OGTT) to assess improvements in glucose control. The OGTT was performed following an overnight fast. […] An OGTT was performed the following morning (approx. 16h post fast). Mice were dosed with vehicle or test compound (starting at 08.45) to a timed schedule 30 minutes prior to the administration of the glucose challenge (2.0 g/kg po). Blood samples were taken immediately prior to dosing (B1), immediately prior to glucose administration (B2) and 15, 30, 60 and 120 minutes after glucose administration.
After OGTT, mice were humanely killed and carcass composition was assessed. The carcass was weighed and stored frozen and the chemical composition of each carcass (fat, protein, water and ash) was determined using classical techniques. Carcass water was determined by freeze-drying the carcasses to constant weight for 2 weeks. Carcass fat was determined on samples of the dry powdered carcasses using a modified Soxhlet extraction protocol (petroleum ether at 40-60° C.) with a Tecator Soxtec 2050 system (Foss UK Ltd, Wheldrake, UK) according to the manufacturer's recommended protocol. Carcass protein was determined using a micro-Kjeldahl procedure on samples of the dry powdered carcasses using a Tecator 2012 digestion block and 2200 distilling unit (Foss UK Ltd). Residual carcass ash was determined by firing samples of the dry powdered carcasses at high temperatures using a muffle ashing furnace (Carbolite OAF 11/1). Repeat determinations of the chemical analysis parameters were performed if necessary (e.g. if the duplicate samples differed by more than 1%). Data for each body composition parameter (fat, protein, water and ash) was determined as g/carcass and % total. Final carcass weights were also analysed as a direct comparison.

[3] = system: diet-induced obese (DIO) mouse; assay: Oral glucose tolerance test (OGTT) in diet-induced obese mice
Method: as §1, §2, §3

[4] = ADC-141 25 mg/kg ip bid, liraglutide 0.1 mg/kg sc bid
[5] = ADC-141 25 mg/kg ip bid, liraglutide 0.1 mg/kg sc bid, vs vehicle
[6] = DEXA, ADC-141 25 mg/kg ip bid, liraglutide 0.1 mg/kg sc bid

`C[C@H](CC1CCCCC1)C(=O)N1CC[C@@](O)(Cn2cc(C(=O)N3CCNCC3)c(-c3ccccc3)cc2=O)C2(CCCC2)C1` [ADC-141, 1-(((S)-7-((R)-3-Cyclohexyl-2-methylpropanoyl)-10-hydroxy-7-azaspiro[4.5]decan-10-yl)methyl)-4-phenyl-5-(piperazine-1-carbonyl)pyridin-2(1H)-one] was tested, and the liver mass ([1]; 2 weeks) was “increase in liver mass”, the “mass of the epididymal fat pad” value ([1]; 2 weeks) was “significant reduction in fat mass; also recorded: significantly smaller fat pads” and the “loss of muscle mass in the tibialis anterior muscle” value ([1]; denervated limb, 14 days) was “significantly lower loss of muscle mass”. The “muscle wasting in the gastrocnemius muscle” value ([1]; denervated limb, 14 days) was “reduced in the gastrocnemius muscle (FIG. 2), though the trend did not reach significance”, the “relative water content of the carcass (percentage of total carcass mass)” value ([2]; ADC-141 5 mg/kg ip bid) was “no effect” and the “carcass water content (g)” value ([2]; ADC-141 5 mg/kg ip bid, vs vehicle) was “no significant effect”. For the same compound, the carcass protein ([2]; ADC-141 5 mg/kg ip bid, vs vehicle-treated animals) was “no significant changes”, the carcass percentage fat ([2]; ADC-141 25 mg/kg ip bid) was −14.6% and the “differences in body weights on the final day of the study” value [2, 4] was ~13%. The “loss of fat as share of the total weight lost” value [2, 4] was 79%, the “percent protein (percentage of total carcass mass), increase” value [2, 4] was 6.0% and the “reduction in carcass fat (g) from controls” value [2, 4] was 24.9%. The “relative water content of the carcass (percentage of total carcass mass)” value [2, 4] was “+11.4%”, the “carcass ash content (g)” value [2, 5] was −9.6% and the “carcass protein content (g)” value [2, 5] was −7.2%. For the same compound, the “carcass water content (g)” value [2, 5] was “no significant effect”, the “reduction in fat mass compared to vehicle treated controls” value ([2]; DEXA Day 13, liraglutide 0.1 mg/kg sc bid, dose of USP19 inhibitor not printed at place) was 24% and the “lean body mass change” value ([2]; DEXA Day 13, vs vehicle, not significant (p>0.05)) was −3%. For the same compound, the total tissue mass ([2]; DEXA analysis) was “significant reduction”, the “fat mass % (percentage of total tissue mass)” value [2, 6] was “significantly decreased” and the “lean mass % (percentage of total tissue mass)” value [2, 6] was “increased”. For the same compound, the “cumulative and average food intake” value ([2]; compared to vehicle control mice (p<0.001)) was “reduction”, the “carcass weight compared to vehicle-treated controls” value ([2]; two weeks, ADC-141 25 mg/kg ip bid, liraglutide 0.1 mg/kg sc bid) was ~−12% and the “average weekly body weight gain” value ([2]; week 1, ADC-141 25 mg/kg ip bid, liraglutide 0.1 mg/kg sc bid, vs vehicle) was “significantly decreased”. For the same compound, the “average weekly body weight gain” value ([2]; week 2, ADC-141 25 mg/kg ip bid, liraglutide 0.1 mg/kg sc bid, vs vehicle) was “significantly decreased”, the “insulin AUC” value ([3]; 0-60 and 0-120 minutes, 25 mg/kg ip bid) was “reduced” and the “glucose AUCB2” value ([3]; 0-120 minutes only, 25 mg/kg ip bid, vs vehicle) was “significantly reduced”. The “glucose AUC” value ([3]; 25 mg/kg ip bid, vs vehicle) was “significantly reduced”, the plasma insulin ([3]; 30, 60 and 120 minutes post-glucose, 25 mg/kg ip bid) was “reduced” and the plasma glucose ([3]; all time points pre- and post-glucose, 25 mg/kg ip bid, vs vehicle) was “significantly reduced”. The fasting plasma glucose ([3]; following 2 weeks of treatment) was “effective at decreasing”.
